Assay results published in publication PMC9754640, “Z-REX uncovers a bifurcation in function of Keap1 paralogs” (eLife, 2022).

Assays:
hKeap1 [1] = target: T1, hKeap1 (Homo sapiens, UniProt Q14145, C273I); experiment: T-REX photouncaging in HEK293T, TEV cleavage, Cy5-azide Click in-gel fluorescence; type: cell-based; details: covalent; alkyne-labelled compound released from Ht-PreNE bound to HaloTag (10 uM in legend, 25 uM in methods), live cells
T1 construct: gene KEAP1; full-length, His6-HaloTag-TEV fusion (2xHA C-terminal in fish); TEV-cleaved after lysis, about 70 kDa; expressed in HEK293T cells or zebrafish embryos

zKeap1b [2] = target: T2, zKeap1b (Danio rerio, UniProt A0A2R8Q1W5); experiment: as above; type: cell-based; details: covalent; alkyne-labelled compound released from Ht-PreNE bound to HaloTag (10 uM in legend, 25 uM in methods), live cells
T2 construct: gene keap1b; full-length, myc-HaloTag-TEV-3xFlag N-terminal fusion, TEV-cleaved after lysis; HEK293T expression
T2 sequence (A0A2R8Q1W5 1-593 isoform A0A2R8Q1W5-3): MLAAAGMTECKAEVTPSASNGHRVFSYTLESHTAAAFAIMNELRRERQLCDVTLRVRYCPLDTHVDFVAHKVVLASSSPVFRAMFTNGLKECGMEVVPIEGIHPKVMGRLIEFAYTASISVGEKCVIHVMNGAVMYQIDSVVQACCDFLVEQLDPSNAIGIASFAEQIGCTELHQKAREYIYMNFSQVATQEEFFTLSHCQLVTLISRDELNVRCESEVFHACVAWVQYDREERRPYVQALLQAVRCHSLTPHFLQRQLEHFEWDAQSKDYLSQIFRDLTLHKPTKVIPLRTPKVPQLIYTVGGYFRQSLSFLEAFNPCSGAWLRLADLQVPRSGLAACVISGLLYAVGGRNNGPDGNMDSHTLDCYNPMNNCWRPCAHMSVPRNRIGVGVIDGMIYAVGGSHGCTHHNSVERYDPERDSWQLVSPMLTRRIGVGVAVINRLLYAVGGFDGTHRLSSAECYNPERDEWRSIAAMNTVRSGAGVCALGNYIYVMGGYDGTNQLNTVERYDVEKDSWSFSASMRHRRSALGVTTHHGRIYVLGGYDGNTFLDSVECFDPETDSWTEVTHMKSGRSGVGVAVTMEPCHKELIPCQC

zKeap1a [3] = target: T3, zKeap1a (Danio rerio, UniProt Q1ECZ2); experiment: as above; type: cell-based; details: covalent; alkyne-labelled compound released from Ht-PreNE bound to HaloTag (10 uM in legend, 25 uM in methods), live cells
T3 construct: gene keap1a; full-length, myc-HaloTag-TEV-3xFlag N-terminal fusion, TEV-cleaved after lysis; HEK293T expression
T3 sequence (Q1ECZ2 1-601): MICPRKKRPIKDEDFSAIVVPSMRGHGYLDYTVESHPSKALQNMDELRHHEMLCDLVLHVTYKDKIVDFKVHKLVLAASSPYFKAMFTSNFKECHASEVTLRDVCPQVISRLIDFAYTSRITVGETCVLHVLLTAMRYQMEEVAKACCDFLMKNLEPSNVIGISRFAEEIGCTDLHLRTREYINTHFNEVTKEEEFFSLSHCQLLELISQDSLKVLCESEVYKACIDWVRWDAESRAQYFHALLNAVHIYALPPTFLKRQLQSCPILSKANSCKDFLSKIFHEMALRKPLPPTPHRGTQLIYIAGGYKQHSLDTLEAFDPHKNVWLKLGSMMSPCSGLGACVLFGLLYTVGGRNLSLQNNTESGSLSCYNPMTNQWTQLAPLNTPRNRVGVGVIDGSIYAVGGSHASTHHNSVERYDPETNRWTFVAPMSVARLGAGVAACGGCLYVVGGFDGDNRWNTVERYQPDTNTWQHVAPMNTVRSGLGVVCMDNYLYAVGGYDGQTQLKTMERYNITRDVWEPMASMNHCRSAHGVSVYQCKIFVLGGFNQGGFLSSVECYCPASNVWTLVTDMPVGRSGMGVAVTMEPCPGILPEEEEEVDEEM

hKeap1 [4] = target: T4, hKeap1 (Homo sapiens, UniProt Q14145); experiment: as above; type: cell-based; details: covalent; alkyne-labelled compound released from Ht-PreNE bound to HaloTag (10 uM in legend, 25 uM in methods), live cells
T4 construct: gene KEAP1; full-length, His6-HaloTag-TEV fusion (2xHA C-terminal in fish); TEV-cleaved after lysis, about 70 kDa; expressed in HEK293T cells or zebrafish embryos

hKeap1 [5] = target: T4, hKeap1; experiment: Z-REX in zebrafish embryos, biotin-azide Click, streptavidin pulldown, western blot; details: covalent; alkyne-labelled compound released from Ht-PreDE (6 uM) in live embryos; also labelled by bolus DE
hKeap1 [6] = target: T4, hKeap1; experiment: T-REX photouncaging in HEK293T, TEV cleavage, Cy5-azide Click in-gel fluorescence; type: cell-based; details: covalent; alkyne-labelled compound released from Ht-PreHNE bound to HaloTag (25 uM in methods), live cells
hKeap1 [7] = target: T1, hKeap1; experiment: as above; type: cell-based; details: covalent; alkyne-labelled compound released from Ht-PreHNE bound to HaloTag (25 uM in methods), live cells
zKeap1a [8] = target: T3, zKeap1a; experiment: as above; type: cell-based; details: covalent; alkyne-labelled compound released from Ht-PreHNE bound to HaloTag (25 uM in methods), live cells
zKeap1b [9] = target: T2, zKeap1b; experiment: as above; type: cell-based; details: covalent; alkyne-labelled compound released from Ht-PreHNE bound to HaloTag (25 uM in methods), live cells

T4 sequence (Q14145 whole entry, the tested form may be a part): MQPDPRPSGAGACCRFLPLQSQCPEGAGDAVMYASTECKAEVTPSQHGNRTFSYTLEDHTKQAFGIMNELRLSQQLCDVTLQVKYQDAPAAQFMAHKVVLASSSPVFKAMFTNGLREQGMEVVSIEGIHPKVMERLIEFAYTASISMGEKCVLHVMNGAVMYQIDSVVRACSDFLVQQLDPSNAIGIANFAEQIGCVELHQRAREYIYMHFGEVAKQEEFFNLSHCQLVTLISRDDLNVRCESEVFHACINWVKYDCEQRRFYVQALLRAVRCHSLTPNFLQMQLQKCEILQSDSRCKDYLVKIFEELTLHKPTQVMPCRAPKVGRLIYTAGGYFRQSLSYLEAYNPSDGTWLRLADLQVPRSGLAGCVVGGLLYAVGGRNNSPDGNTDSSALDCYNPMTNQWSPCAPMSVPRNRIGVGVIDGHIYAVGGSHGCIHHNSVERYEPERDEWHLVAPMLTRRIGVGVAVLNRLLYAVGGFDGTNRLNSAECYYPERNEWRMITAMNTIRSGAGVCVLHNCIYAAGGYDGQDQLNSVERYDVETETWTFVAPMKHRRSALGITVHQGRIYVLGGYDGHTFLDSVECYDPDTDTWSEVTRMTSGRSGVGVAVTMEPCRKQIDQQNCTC
T1 sequence (Q14145 whole entry C273I, the tested form may be a part): as the sequence (Q14145 whole entry, the tested form may be a part) above, with C273I counted along it

Q: With `C#CCCCC/C=C/C=O` [NE] as the molecule, how does the targeting efficiency (hKeap1 [1]) read?
A: hKeap1 and hKeap1(C273I) sensed NE marginally better than zKeap1a/b

Q: And the targeting efficiency (zKeap1b [2])?
A: zKeap1a/b, both of which sensed NE to the same extent

Q: What about the targeting efficiency (zKeap1a [3]) of the same molecule?
A: zKeap1a/b, both of which sensed NE to the same extent

Q: And the targeting efficiency (hKeap1 [4])?
A: hKeap1 and hKeap1(C273I) sensed NE marginally better than zKeap1a/b

Q: `C#CCCCC/C=C/C(C)=O` [DE] was tested. Which “Z-REX in zebrafish embryos, biotin-azide Click, streptavidin pulldown, western b” value (hKeap1 [5]) did it give?
A: using DE as an example that hKeap1-labeling extent was similar to that achieved with HNE

Q: With `C#CCCCC(O)/C=C/C=O` (stereo not drawn) [HNE] as the molecule, how does the “T-REX photouncaging in HEK293T, TEV cleavage, Cy5-azide Click in-gel fluorescenc” value (“T-REX photouncaging in HEK293T” below) (hKeap1 [6]) read?
A: all four proteins sensed HNE equally well

Q: And the “T-REX photouncaging in HEK293T” value (hKeap1 [7])?
A: all four proteins sensed HNE equally well

Q: And the “T-REX photouncaging in HEK293T” value (zKeap1a [8])?
A: all four proteins sensed HNE equally well

Q: And the “T-REX photouncaging in HEK293T” value (zKeap1b [9])?
A: all four proteins sensed HNE equally well
